In patent publication US20100292231A1, “Indazole Compounds for Treating Inflammatory Disorders, Demyelinating Disorders and Cancers” (priority 2007, published 2010):

System: Mda231 cells
Experiment: BME cell invasion assay (Boyden chamber principle)
Type: cell-based
Settings: 24 hours
Method: Representative compounds were tested for their ability to inhibit invasion of Mda231 cells. Invasive cells are a mark of metastatic tumors. The in vitro invasion assay is based on the Boyden chamber assay principle.
The 96-well BME cell invasion assay kit was used according to the manufacturers' protocol (Culturex™ catalog number: 3455-096-K). Prior to assay cells were serum starved for 18 hrs and the membrane of the top invasion chamber was coated with 50 μl of 0.83× BME solution and incubated overnight at 37° C./5% CO2. The next day cells were harvested and 40.000 cells/well in 50 μl medium without serum were plated to top chamber. 150 μl of medium with serum was added to bottom chamber. Compounds were added and cells were incubated for 24 hrs at 37° C./5% CO2. The remaining cells were assayed for standard curve.
After 24 hours, the bottom chamber was aspirated and washed twice with 200 μl wash buffer. The bottom chamber was transferred to a black assay plate. Cells migrated through the membrane are stained with Calcein-AM and measured with fluorescence spectrophotometry; 150 μl Calcein-AM/Cell dissociation solution was added and incubated at 37° C./5% CO2. After 1 hour, the plate was read at 485 nm excitation, 520 nm emission. Using standard curve, the fluorescence signal measured was converted to cell number and percent invasion was determined.

SMILES	inhibition of cell invasion
CN1CCN(CCCNc2ccc3ncn4c5ccc6[nH]ncc6c5c(=O)c2c34)CC1 [(XVII)]	slightly more effective than Symadex
CCN(CC)CCCNc1ccc2ncn3c4ccc5[nH]ncc5c4c(=O)c1c23 [Compound (XV)]	slightly more effective than Symadex
